Test results: patent publication US9089587B2, “Treatment of papulopustular rosacea with ivermectin” (Galderma S.A., priority 2013, dated 2015)

Key:
[1] = tested on: subjects with moderate or severe papulopustular rosacea; assay: Ivermectin 1% cream vs metronidazole 0.75% cream, Period A, 16 weeks (Example 4); type: in vivo, human; conditions: week 12 (highest difference)
Source text: Study visits during Period A were as follows: a screening visit, and at baseline, weeks 3, 6, 9, 12 and 16.
Eligible subjects were 18 years or older, with moderate or severe papulopustular rosacea as noted by an IGA of 3 (“several small or large papules/pustules, moderate erythema”) or 4 (“numerous small and/or large papules/pustules, severe erythema”), and presenting with 15-70 facial inflammatory lesions (papules and pustules).
The subjects were instructed to maintain a consistent lifestyle throughout the study regarding rosacea triggers (i.e. avoiding environmental factors, certain foods, and excessive sun exposure).
Efficacy assessments at each visit were inflammatory lesion counts (papules and pustules) counted on five facial regions (forehead, chin, nose, right cheek, left cheek), and the Investigator's Global Assessment (IGA) of disease severity. Safety assessments included adverse events (AEs) throughout the study, local tolerance parameters (stinging/burning, dryness, itching) at each visit evaluated on a 4-point scale (from 0 (none) to 3 (severe)), and laboratory parameters measured at baseline, weeks 9 and 16. Other assessments included the subject's evaluation of rosacea improvement compared to their condition at baseline, and subject's appreciation questionnaire at the end of the study (regarding satisfaction with the study drug). […]

[2] = tested on: subjects with moderate or severe papulopustular rosacea; assay: Study 1 and Study 2: once-daily ivermectin 1% cream vs vehicle, first part, 12 weeks (Example 3); type: in vivo, human
Description: Both studies were conducted in accordance with the ethical principles of the Declaration of Helsinki and Good Clinical Practices, and in compliance with local regulatory requirements.
Each study had three parts. In the first part of the study, subjects with PPR were treated with ivermectin 1% cream (IVM 1%) or vehicle once daily at bedtime for 12 weeks. In the second part of the study, subjects initially treated with IVM 1% once daily at bedtime continued the same treatment, while subjects treated with the vehicle once daily switched to topical treatment with azelaic acid 15% gel twice daily, in the morning and evening. The third part of the study consisted of 4 weeks safety follow-up, without treatment. […]
Efficacy assessments at each visit were the IGA of disease severity, and inflammatory lesion counts (papules and pustules) on each of the five facial regions (forehead, chin, nose, right cheek, left cheek). Safety assessments included adverse events (AEs) throughout the study, local tolerance parameters (stinging/burning, dryness, itching) at each study visit evaluated on a 4-point scale [from 0 (none) to 3 (severe)], and laboratory parameters (hematology and biochemistry) measured before and after treatment. […]

5-O-demethyl-22,23-dihydroavermectin A1a plus 5-O-demethyl-25-de(1-methylpropyl)-25-(1-methylethyl)-22,23-dihydroavermectin A1a [ivermectin]
difference in IGA success rate, ivermectin superior to metronidazole [1]: 14.9%
median reduction from baseline in inflammatory lesion counts ([2]; Study 1, week 2): about 30%
median reduction from baseline in inflammatory lesion counts ([2]; Study 2, week 2): 27.3%
